Laboratory results: ChEMBL document CHEMBL1158207, “Mauritiamine, a New Antifouling Oroidin Dimer from the Marine Sponge Agelas mauritiana” (1996)
The source made the active and inactive calls. The rule behind the calls is not given here.

How the values were obtained:
Ciona savignyi = assay: Promotion of metamorphosis in ascidian Ciona savignyi larvae at 2.5 ug/ml after 10 hrs; assay type: functional, organism-based
[1] = tested on: Microbacterium maritypicum; assay: Antimicrobial activity against Flavobacterium marinotypicum ATCC 19260 at 10 ug/disk after 24 hrs by paper disk method; assay type: functional; conditions: ATCC 19260, 24 h, read-out: IZ

NC(=O)c1cc(Br)c(Br)[nH]1
Activity (Ciona savignyi): Active

NC1=NC(=O)C(/C=C/CNC(=O)c2cc(Br)c(Br)[nH]2)(c2nc(N)[nH]c2/C=C/CNC(=O)c2cc(Br)c(Br)[nH]2)N1 (stereo not drawn) [MAURITIAMINE]
zone of inhibition at 10 µg/disc [1]: 10 mm

Nc1ncc(/C=C/CNC(=O)c2cc(Br)c(Br)[nH]2)[nH]1 [OROIDIN]
zone of inhibition at 10 µg/disc [1]: 15 mm
